Results reported in US9738634B2, “Heterocyclic amide compound and herbicide” (SYNGENTA PARTICIPATIONS AG, priority 2013, dated 2017).

Columns and labels:
Format in all cases: in vivo
[1] = system: barnyard grass; experiment: Test Example 1: weedkilling efficacy, preemergent weed treatment in the submerged state; A: barnyard grass; conditions: treatment dosage 252 g/ha
In short: (§1)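 Alluvial soil in Wagner pots flooded to 4 cm; barnyard grass, bulrush and oval-leafed pondweed seeds sown, then 2.5-leaf rice seedlings transplanted. Same day, emulsified compound diluted in water to set g/ha dosages and applied to water surface; greenhouse 25–30 °C, effect scored by criteria after 3 weeks.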

[2] = system: bulrush; experiment: Test Example 1: weedkilling efficacy, preemergent weed treatment in the submerged state; B: bulrush; conditions: treatment dosage 252 g/ha
In short: as §1

[3] = system: oval-leafed pondweed; experiment: Test Example 1: weedkilling efficacy, preemergent weed treatment in the submerged state; C: oval-leafed pondweed; conditions: treatment dosage 252 g/ha
In short: as §1

[4] = system: transplanted rice; experiment: Test Example 1: preemergent weed treatment in the submerged state, effect on crop; a: transplanted rice; conditions: treatment dosage 252 g/ha
In short: as §1

[5] = system: barnyard grass; experiment: Test Example 2: weedkilling efficacy, growth period weed treatment in the submerged state; A: barnyard grass; conditions: treatment dosage 252 g/ha
In short: (§2)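 First, alluvial soil in pots is flooded to 4 cm and mixed seed is sown. Next, plants grow in a greenhouse at 25 to 30° C until the 1-2 leaf stage. Then diluted emulsion is applied onto the water surface at the given g/ha rate, and injury is assessed after 3 weeks.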

[6] = system: bulrush; experiment: Test Example 2: weedkilling efficacy, growth period weed treatment in the submerged state; B: bulrush; conditions: treatment dosage 252 g/ha
In short: as §2

[7] = system: oval-leafed pondweed; experiment: Test Example 2: weedkilling efficacy, growth period weed treatment in the submerged state; C: oval-leafed pondweed; conditions: treatment dosage 252 g/ha
In short: as §2

[8] = system: crabgrass; experiment: Test Example 3: weedkilling efficacy through soil treatment; D: crabgrass; conditions: treatment dosage 315 g/ha
In short: (§3)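 Crop and weed responses were judged three weeks after a uniform surface spray of the water-diluted emulsion at the given g/ha rate. Seeds sat beneath about 1.5 cm of sterilized diluvial soil, and boxes stood in a greenhouse at 25 to 30° C.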

[9] = system: green foxtail; experiment: Test Example 3: weedkilling efficacy through soil treatment; E: green foxtail; conditions: treatment dosage 315 g/ha
In short: as §3

[10] = system: black-grass; experiment: Test Example 3: weedkilling efficacy through soil treatment; H: black-grass; conditions: treatment dosage 315 g/ha
In short: as §3

[11] = system: Italian ryegrass; experiment: Test Example 3: weedkilling efficacy through soil treatment; I: Italian ryegrass; conditions: treatment dosage 315 g/ha
In short: as §3

[12] = system: Indian mallow; experiment: Test Example 3: weedkilling efficacy through soil treatment; K: Indian mallow; conditions: treatment dosage 315 g/ha
In short: as §3

[13] = system: redroot pigweed; experiment: Test Example 3: weedkilling efficacy through soil treatment; L: redroot pigweed; conditions: treatment dosage 315 g/ha
In short: as §3

[14] = system: fig-leafed goosefoot; experiment: Test Example 3: weedkilling efficacy through soil treatment; M: fig-leafed goosefoot; conditions: treatment dosage 315 g/ha
In short: as §3

[15] = system: chickweed; experiment: Test Example 3: weedkilling efficacy through soil treatment; N: chickweed; conditions: treatment dosage 315 g/ha
In short: as §3

[16] = system: birds-eye speedwell; experiment: Test Example 3: weedkilling efficacy through soil treatment; p: birds-eye speedwell; conditions: treatment dosage 315 g/ha
In short: as §3

[17] = system: directly sown rice; experiment: Test Example 3: soil treatment, effect on crop; b: directly sown rice; conditions: treatment dosage 315 g/ha
In short: as §3

[18] = system: corn; experiment: Test Example 3: soil treatment, effect on crop; c: corn; conditions: treatment dosage 315 g/ha
In short: as §3

[19] = system: soybean; experiment: Test Example 3: soil treatment, effect on crop; d: soybean; conditions: treatment dosage 315 g/ha
In short: as §3

[20] = system: wheat; experiment: Test Example 3: soil treatment, effect on crop; e: wheat; conditions: treatment dosage 315 g/ha
In short: as §3

[21] = system: beet; experiment: Test Example 3: soil treatment, effect on crop; f: beet; conditions: treatment dosage 315 g/ha
In short: as §3

[22] = system: crabgrass; experiment: Test Example 4: weedkilling efficacy by foliar treatment; D: crabgrass; conditions: treatment dosage 315 g/ha
In short: (§4)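 Seeds are spot-sown into sterilized diluvial soil and covered with about 1.5 cm of soil. After 14 days' greenhouse growth at 25 to 30° C, plants are sprayed on stems and leaves with diluted emulsion at the stated g/ha rate, then scored at 3 weeks.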

[23] = system: green foxtail; experiment: Test Example 4: weedkilling efficacy by foliar treatment; E: green foxtail; conditions: treatment dosage 315 g/ha
In short: as §4

[24] = system: black-grass; experiment: Test Example 4: weedkilling efficacy by foliar treatment; H: black-grass; conditions: treatment dosage 315 g/ha
In short: as §4

[25] = system: Italian ryegrass; experiment: Test Example 4: weedkilling efficacy by foliar treatment; I: Italian ryegrass; conditions: treatment dosage 315 g/ha
In short: as §4

[26] = system: Indian mallow; experiment: Test Example 4: weedkilling efficacy by foliar treatment; K: Indian mallow; conditions: treatment dosage 315 g/ha
In short: as §4

[27] = system: redroot pigweed; experiment: Test Example 4: weedkilling efficacy by foliar treatment; L: redroot pigweed; conditions: treatment dosage 315 g/ha
In short: as §4

[28] = system: fig-leafed goosefoot; experiment: Test Example 4: weedkilling efficacy by foliar treatment; M: fig-leafed goosefoot; conditions: treatment dosage 315 g/ha
In short: as §4

[29] = system: chickweed; experiment: Test Example 4: weedkilling efficacy by foliar treatment; N: chickweed; conditions: treatment dosage 315 g/ha
In short: as §4

[30] = system: catchweed; experiment: Test Example 4: weedkilling efficacy by foliar treatment; O: catchweed; conditions: treatment dosage 315 g/ha
In short: as §4

[31] = system: birds-eye speedwell; experiment: Test Example 4: weedkilling efficacy by foliar treatment; p: birds-eye speedwell; conditions: treatment dosage 315 g/ha
In short: as §4

[32] = system: directly sown rice; experiment: Test Example 4: foliar treatment, effect on crop; b: directly sown rice; conditions: treatment dosage 315 g/ha
In short: as §4

[33] = system: corn; experiment: Test Example 4: foliar treatment, effect on crop; c: corn; conditions: treatment dosage 315 g/ha
In short: as §4

[34] = system: soybean; experiment: Test Example 4: foliar treatment, effect on crop; d: soybean; conditions: treatment dosage 315 g/ha
In short: as §4

[35] = system: wheat; experiment: Test Example 4: foliar treatment, effect on crop; e: wheat; conditions: treatment dosage 315 g/ha
In short: as §4

[36] = system: beet; experiment: Test Example 4: foliar treatment, effect on crop; f: beet; conditions: treatment dosage 315 g/ha
In short: as §4

Row | Structure (SMILES) | A (barnyard grass) weedkilling efficacy grade [1] | B (bulrush) weedkilling efficacy grade [2] | C (oval-leafed pondweed) weedkilling efficacy grade [3] | a (transplanted rice) effect on crop grade [4] | A (barnyard grass) weedkilling efficacy grade [5] | B (bulrush) weedkilling efficacy grade [6] | C (oval-leafed pondweed) weedkilling efficacy grade [7] | D (crabgrass) weedkilling efficacy grade [8] | E (green foxtail) weedkilling efficacy grade [9] | H (black-grass) weedkilling efficacy grade [10] | I (Italian ryegrass) weedkilling efficacy grade [11] | K (Indian mallow) weedkilling efficacy grade [12] | L (redroot pigweed) weedkilling efficacy grade [13] | M (fig-leafed goosefoot) weedkilling efficacy grade [14] | N (chickweed) weedkilling efficacy grade [15] | P (birds-eye speedwell) weedkilling efficacy grade [16] | b (directly sown rice) effect on crop grade [17] | c (corn) effect on crop grade [18] | d (soybean) effect on crop grade [19] | e (wheat) effect on crop grade [20] | further results
1 | CC1=C(c2ccsc2)C(=O)N(C(C)(C)C(=O)Nc2cccc(Cl)n2)CO1 [B-2-05] | 5 (weed kill ratio 90% or more, (practically complete withering)) | 5 (weed kill ratio 90% or more, (practically complete withering)) | 5 (weed kill ratio 90% or more, (practically complete withering)) | 0 (weed kill ratio 5% or less (practically no effect)) | 5 (weed kill ratio 90% or more, (practically complete withering)) | 5 (weed kill ratio 90% or more, (practically complete withering)) | 5 (weed kill ratio 90% or more, (practically complete withering)) | 5 (weed kill ratio 90% or more, (practically complete withering)) | 5 (weed kill ratio 90% or more, (practically complete withering)) | 5 (weed kill ratio 90% or more, (practically complete withering)) | 5 (weed kill ratio 90% or more, (practically complete withering)) | 1 (weed kill ratio 5% or more, less than 20%) | 4 (weed kill ratio 70% or more, less than 90%) | 5 (weed kill ratio 90% or more, (practically complete withering)) | 5 (weed kill ratio 90% or more, (practically complete withering)) | 5 (weed kill ratio 90% or more, (practically complete withering)) | 3 (weed kill ratio 40% or more, less than 70%) | 0 (weed kill ratio 5% or less (practically no effect)) | 0 (weed kill ratio 5% or less (practically no effect)) | 0 (weed kill ratio 5% or less (practically no effect)) | f (beet) effect on crop grade [21]: 5 (weed kill ratio 90% or more, (practically complete withering)); D (crabgrass) weedkilling efficacy grade [22]: 5 (weed kill ratio 90% or more, (practically complete withering)); E (green foxtail) weedkilling efficacy grade [23]: 5 (weed kill ratio 90% or more, (practically complete withering)); H (black-grass) weedkilling efficacy grade [24]: 5 (weed kill ratio 90% or more, (practically complete withering)); I (Italian ryegrass) weedkilling efficacy grade [25]: 5 (weed kill ratio 90% or more, (practically complete withering)); K (Indian mallow) weedkilling efficacy grade [26]: 3 (weed kill ratio 40% or more, less than 70%); L (redroot pigweed) weedkilling efficacy grade [27]: 3 (weed kill ratio 40% or more, less than 70%); M (fig-leafed goosefoot) weedkilling efficacy grade [28]: 4 (weed kill ratio 70% or more, less than 90%); N (chickweed) weedkilling efficacy grade [29]: 4 (weed kill ratio 70% or more, less than 90%); O (catchweed) weedkilling efficacy grade [30]: 4 (weed kill ratio 70% or more, less than 90%); P (birds-eye speedwell) weedkilling efficacy grade [31]: 5 (weed kill ratio 90% or more, (practically complete withering)); b (directly sown rice) effect on crop grade [32]: 4 (weed kill ratio 70% or more, less than 90%); c (corn) effect on crop grade [33]: 4 (weed kill ratio 70% or more, less than 90%); d (soybean) effect on crop grade [34]: 3 (weed kill ratio 40% or more, less than 70%); e (wheat) effect on crop grade [35]: 3 (weed kill ratio 40% or more, less than 70%); f (beet) effect on crop grade [36]: 4 (weed kill ratio 70% or more, less than 90%)
2 | CC1=C(c2cccnc2F)C(=O)N(C(C)(C)C(=O)Nc2cccc(Cl)n2)CO1 [B-2-08] | 5 (weed kill ratio 90% or more, (practically complete withering)) | 5 (weed kill ratio 90% or more, (practically complete withering)) | 5 (weed kill ratio 90% or more, (practically complete withering)) | 0 (weed kill ratio 5% or less (practically no effect)) | 5 (weed kill ratio 90% or more, (practically complete withering)) | 5 (weed kill ratio 90% or more, (practically complete withering)) | 5 (weed kill ratio 90% or more, (practically complete withering)) | 5 (weed kill ratio 90% or more, (practically complete withering)) | 5 (weed kill ratio 90% or more, (practically complete withering)) | 5 (weed kill ratio 90% or more, (practically complete withering)) | 5 (weed kill ratio 90% or more, (practically complete withering)) | 4 (weed kill ratio 70% or more, less than 90%) | 4 (weed kill ratio 70% or more, less than 90%) | 4 (weed kill ratio 70% or more, less than 90%) | 3 (weed kill ratio 40% or more, less than 70%) | 4 (weed kill ratio 70% or more, less than 90%) | 5 (weed kill ratio 90% or more, (practically complete withering)) | 0 (weed kill ratio 5% or less (practically no effect)) | 0 (weed kill ratio 5% or less (practically no effect)) | 3 (weed kill ratio 40% or more, less than 70%) | f (beet) effect on crop grade [21]: 1 (weed kill ratio 5% or more, less than 20%); D (crabgrass) weedkilling efficacy grade [22]: 5 (weed kill ratio 90% or more, (practically complete withering)); E (green foxtail) weedkilling efficacy grade [23]: 5 (weed kill ratio 90% or more, (practically complete withering)); H (black-grass) weedkilling efficacy grade [24]: 5 (weed kill ratio 90% or more, (practically complete withering)); I (Italian ryegrass) weedkilling efficacy grade [25]: 5 (weed kill ratio 90% or more, (practically complete withering)); K (Indian mallow) weedkilling efficacy grade [26]: 4 (weed kill ratio 70% or more, less than 90%); L (redroot pigweed) weedkilling efficacy grade [27]: 4 (weed kill ratio 70% or more, less than 90%); M (fig-leafed goosefoot) weedkilling efficacy grade [28]: 4 (weed kill ratio 70% or more, less than 90%); N (chickweed) weedkilling efficacy grade [29]: 4 (weed kill ratio 70% or more, less than 90%); O (catchweed) weedkilling efficacy grade [30]: 3 (weed kill ratio 40% or more, less than 70%); P (birds-eye speedwell) weedkilling efficacy grade [31]: 4 (weed kill ratio 70% or more, less than 90%); b (directly sown rice) effect on crop grade [32]: 4 (weed kill ratio 70% or more, less than 90%); c (corn) effect on crop grade [33]: 0 (weed kill ratio 5% or less (practically no effect)); d (soybean) effect on crop grade [34]: 4 (weed kill ratio 70% or more, less than 90%); e (wheat) effect on crop grade [35]: 2 (weed kill ratio 20% or more, less than 40%); f (beet) effect on crop grade [36]: 5 (weed kill ratio 90% or more, (practically complete withering))
